Activity calls are given as the source filed them.
Assays:
[1] = target: 26S proteasome regulatory subunit 6B (Homo sapiens, UniProt P43686)
Adenosine kinase = Adenosine kinase (Homo sapiens, UniProt P55263)
[2] = target: T1, Ferrochelatase, mitochondrial (Homo sapiens, UniProt P22830)
T1 sequence (P22830 whole entry): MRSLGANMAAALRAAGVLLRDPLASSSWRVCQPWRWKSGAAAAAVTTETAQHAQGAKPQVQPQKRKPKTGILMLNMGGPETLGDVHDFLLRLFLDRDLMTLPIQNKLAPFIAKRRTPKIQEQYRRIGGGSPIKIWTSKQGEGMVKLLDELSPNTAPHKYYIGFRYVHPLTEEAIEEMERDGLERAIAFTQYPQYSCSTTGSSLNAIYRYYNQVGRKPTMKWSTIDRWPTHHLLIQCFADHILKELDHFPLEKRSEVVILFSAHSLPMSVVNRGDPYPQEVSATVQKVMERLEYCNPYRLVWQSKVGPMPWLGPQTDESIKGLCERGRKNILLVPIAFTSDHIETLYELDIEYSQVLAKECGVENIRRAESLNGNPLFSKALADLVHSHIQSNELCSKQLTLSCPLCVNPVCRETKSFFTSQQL

Aurora kinase B = Aurora kinase B (Homo sapiens, UniProt Q96GD4)
Chain of Aurora kinase B (Q96GD4 whole entry): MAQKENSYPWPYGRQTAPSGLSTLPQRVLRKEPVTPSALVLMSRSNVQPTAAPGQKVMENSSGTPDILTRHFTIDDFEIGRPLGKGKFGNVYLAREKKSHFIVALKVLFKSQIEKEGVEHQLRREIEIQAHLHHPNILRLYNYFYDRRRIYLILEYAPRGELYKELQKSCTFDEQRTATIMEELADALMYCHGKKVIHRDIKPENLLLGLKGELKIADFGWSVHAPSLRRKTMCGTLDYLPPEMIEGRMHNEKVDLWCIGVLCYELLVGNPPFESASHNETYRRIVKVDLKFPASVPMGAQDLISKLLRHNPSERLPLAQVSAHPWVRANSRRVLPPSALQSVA

Myosin-14 = Myosin-14 (Homo sapiens, UniProt Q7Z406)
Chain of Myosin-14 (Q7Z406 whole entry): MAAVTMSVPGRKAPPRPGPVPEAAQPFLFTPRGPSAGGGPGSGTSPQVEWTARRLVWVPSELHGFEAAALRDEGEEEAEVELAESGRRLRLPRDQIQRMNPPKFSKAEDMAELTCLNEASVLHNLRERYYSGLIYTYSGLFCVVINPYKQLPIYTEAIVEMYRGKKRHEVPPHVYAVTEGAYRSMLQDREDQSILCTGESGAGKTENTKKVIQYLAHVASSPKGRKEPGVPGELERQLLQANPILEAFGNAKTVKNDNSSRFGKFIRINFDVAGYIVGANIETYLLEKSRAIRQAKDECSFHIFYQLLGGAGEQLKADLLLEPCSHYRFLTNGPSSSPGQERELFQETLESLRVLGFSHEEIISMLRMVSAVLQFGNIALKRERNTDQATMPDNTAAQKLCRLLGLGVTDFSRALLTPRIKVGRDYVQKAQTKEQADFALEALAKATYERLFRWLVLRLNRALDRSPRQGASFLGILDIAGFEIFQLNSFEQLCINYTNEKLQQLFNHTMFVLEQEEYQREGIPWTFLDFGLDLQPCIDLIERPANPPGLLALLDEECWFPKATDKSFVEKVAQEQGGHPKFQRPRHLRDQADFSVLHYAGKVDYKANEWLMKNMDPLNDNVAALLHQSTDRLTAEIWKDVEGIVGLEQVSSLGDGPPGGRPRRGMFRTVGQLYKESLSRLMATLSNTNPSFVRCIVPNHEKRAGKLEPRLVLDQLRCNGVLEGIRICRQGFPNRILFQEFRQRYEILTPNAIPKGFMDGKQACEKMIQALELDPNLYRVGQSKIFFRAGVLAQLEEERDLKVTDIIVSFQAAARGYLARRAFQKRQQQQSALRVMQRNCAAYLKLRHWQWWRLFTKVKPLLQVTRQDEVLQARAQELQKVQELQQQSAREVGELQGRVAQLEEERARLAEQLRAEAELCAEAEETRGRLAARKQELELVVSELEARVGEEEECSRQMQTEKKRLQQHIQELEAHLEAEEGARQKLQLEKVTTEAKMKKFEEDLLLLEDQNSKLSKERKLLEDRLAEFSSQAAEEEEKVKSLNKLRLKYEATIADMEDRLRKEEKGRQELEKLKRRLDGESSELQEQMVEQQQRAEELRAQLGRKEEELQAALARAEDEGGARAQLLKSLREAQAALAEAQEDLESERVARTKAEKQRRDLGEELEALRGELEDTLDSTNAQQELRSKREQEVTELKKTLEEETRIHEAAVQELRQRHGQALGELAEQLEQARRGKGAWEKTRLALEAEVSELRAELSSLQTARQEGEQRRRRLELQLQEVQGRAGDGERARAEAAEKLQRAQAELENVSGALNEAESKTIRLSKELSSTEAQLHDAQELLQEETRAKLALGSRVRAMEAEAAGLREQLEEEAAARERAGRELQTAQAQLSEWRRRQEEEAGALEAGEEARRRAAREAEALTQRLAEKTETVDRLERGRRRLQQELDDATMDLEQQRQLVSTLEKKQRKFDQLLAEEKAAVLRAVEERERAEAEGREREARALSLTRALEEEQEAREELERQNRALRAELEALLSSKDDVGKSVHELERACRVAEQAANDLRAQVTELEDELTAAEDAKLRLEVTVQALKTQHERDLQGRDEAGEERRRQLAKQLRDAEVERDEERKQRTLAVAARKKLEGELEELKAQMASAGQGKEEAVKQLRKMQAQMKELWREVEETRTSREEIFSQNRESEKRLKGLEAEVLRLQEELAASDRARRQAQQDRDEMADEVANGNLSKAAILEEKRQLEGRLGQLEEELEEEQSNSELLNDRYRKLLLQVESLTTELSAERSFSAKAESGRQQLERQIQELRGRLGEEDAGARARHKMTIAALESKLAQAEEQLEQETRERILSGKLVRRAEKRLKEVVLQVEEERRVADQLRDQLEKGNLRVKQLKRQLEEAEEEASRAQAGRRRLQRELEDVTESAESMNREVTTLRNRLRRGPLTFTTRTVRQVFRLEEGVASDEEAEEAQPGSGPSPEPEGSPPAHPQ

[3] = target: T2, Serine/threonine-protein kinase LATS1 (Homo sapiens, UniProt O95835)
T2 sequence (O95835 whole entry): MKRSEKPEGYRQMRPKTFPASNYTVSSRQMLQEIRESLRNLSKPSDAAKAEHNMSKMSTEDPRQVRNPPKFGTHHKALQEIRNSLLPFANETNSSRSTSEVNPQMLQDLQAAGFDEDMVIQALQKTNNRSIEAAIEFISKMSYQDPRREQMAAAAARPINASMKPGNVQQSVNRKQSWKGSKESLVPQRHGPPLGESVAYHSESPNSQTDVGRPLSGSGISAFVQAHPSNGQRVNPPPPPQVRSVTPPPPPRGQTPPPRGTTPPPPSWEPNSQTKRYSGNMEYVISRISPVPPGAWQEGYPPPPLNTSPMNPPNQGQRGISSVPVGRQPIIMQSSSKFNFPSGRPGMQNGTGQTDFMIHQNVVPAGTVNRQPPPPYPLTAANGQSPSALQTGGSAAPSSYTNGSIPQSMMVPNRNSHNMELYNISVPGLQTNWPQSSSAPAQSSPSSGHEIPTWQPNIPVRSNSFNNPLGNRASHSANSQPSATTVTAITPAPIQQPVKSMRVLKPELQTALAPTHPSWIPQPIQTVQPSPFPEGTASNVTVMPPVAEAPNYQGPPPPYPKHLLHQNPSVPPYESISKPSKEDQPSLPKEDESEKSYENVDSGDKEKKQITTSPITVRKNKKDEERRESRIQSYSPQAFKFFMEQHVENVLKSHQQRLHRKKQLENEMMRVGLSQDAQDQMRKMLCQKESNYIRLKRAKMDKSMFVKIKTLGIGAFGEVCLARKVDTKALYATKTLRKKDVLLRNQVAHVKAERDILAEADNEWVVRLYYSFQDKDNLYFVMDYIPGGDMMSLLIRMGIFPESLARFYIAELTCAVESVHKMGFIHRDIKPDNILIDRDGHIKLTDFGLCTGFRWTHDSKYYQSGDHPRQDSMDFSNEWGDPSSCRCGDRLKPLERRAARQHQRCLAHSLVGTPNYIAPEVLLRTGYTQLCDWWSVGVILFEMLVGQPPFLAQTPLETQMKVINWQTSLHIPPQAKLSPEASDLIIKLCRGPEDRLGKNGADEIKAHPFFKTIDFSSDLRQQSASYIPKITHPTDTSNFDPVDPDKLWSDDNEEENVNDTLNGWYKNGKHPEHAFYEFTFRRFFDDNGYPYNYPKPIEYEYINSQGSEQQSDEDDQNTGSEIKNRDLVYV

[4] = target: T3, Serine/threonine-protein kinase Nek2 (Homo sapiens, UniProt P51955)
T3 sequence (P51955 whole entry): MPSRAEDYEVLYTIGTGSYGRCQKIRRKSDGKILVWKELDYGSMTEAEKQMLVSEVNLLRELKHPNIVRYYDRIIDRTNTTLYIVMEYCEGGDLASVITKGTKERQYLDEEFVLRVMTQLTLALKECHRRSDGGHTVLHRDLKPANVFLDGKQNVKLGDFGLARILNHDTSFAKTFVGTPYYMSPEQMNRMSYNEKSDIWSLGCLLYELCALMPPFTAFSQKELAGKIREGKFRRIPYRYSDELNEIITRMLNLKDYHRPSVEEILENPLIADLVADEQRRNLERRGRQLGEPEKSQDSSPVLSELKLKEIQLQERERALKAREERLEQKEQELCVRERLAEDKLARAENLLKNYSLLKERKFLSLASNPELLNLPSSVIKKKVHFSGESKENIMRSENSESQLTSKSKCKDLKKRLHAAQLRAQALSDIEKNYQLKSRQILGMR

[5] = target: T4, Interleukin-1 receptor-associated kinase 4 (Homo sapiens, UniProt Q9NWZ3)
T4 sequence (Q9NWZ3 whole entry): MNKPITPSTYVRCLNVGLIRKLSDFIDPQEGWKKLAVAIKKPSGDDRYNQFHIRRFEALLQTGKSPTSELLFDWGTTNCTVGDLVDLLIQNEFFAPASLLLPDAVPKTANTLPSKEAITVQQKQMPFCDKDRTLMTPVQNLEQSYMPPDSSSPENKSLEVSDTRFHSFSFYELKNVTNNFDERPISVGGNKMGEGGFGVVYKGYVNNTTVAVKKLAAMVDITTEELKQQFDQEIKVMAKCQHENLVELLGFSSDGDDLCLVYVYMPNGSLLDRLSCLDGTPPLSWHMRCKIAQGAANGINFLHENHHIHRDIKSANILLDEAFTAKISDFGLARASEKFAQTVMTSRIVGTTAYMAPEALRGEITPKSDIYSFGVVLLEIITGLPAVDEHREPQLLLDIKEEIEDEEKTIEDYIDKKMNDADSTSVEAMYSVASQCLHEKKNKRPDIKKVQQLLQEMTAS
Further: in the data inactive means no Kd found up to 30 µM.

Chain of Adenosine kinase (P55263 whole entry): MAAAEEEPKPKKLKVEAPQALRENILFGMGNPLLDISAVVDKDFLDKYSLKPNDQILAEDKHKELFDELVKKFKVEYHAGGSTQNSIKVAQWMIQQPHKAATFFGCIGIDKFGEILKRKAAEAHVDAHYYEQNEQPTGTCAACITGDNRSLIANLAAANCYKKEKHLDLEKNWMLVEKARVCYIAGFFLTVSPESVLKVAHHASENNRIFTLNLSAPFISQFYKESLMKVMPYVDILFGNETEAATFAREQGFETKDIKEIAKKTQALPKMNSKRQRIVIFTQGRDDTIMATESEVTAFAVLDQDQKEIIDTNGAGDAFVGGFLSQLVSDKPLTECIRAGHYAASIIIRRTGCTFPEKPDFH
Chain of 26S proteasome regulatory subunit 6B (P43686 whole entry): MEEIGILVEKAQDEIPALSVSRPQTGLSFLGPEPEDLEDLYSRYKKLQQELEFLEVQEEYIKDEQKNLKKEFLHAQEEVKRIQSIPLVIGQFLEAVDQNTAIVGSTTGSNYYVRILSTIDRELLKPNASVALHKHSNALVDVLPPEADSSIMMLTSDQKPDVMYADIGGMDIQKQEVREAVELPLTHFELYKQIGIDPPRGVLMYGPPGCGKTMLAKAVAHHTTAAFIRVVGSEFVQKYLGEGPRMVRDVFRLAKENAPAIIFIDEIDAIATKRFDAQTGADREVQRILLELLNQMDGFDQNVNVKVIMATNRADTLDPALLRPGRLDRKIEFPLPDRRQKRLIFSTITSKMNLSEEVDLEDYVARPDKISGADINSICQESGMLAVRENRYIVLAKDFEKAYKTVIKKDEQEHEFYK

Which results are given for `Cc1c(NC(=O)OC[C@@H]2COCCN2)cn2ncnc(Nc3ccc4c(cnn4Cc4cccc(F)c4)c3)c12` [AC-480]?
Kd [1]: > 30 µM (inactive); Kd (Adenosine kinase): > 30 µM (inactive); Kd [2]: > 30 µM (inactive); Kd (Aurora kinase B): > 30 µM (inactive); Kd (Myosin-14): > 30 µM (inactive); Kd [3]: > 30 µM (inactive); Kd [4]: > 30 µM (inactive); Kd [5]: > 30 µM (inactive)

`COc1ccc(-c2ccc3ncc4c(c3c2)n(-c2ccc(N3CCNCC3)c(C(F)(F)F)c2)c(=O)n4C)cn1` [BGT-226 FREE BASE] was tested. Which Kd [1] did it give?
The Kd was > 30 µM (inactive).

What about the Kd (Adenosine kinase) of the same molecule?
The Kd was > 30 µM (inactive).

What about the Kd [2] of the same molecule?
Its Kd is 3.11 µM (active).

And the Kd (Aurora kinase B)?
The Kd was > 30 µM (inactive).

What about the Kd (Myosin-14) of the same molecule?
Its Kd is > 30 µM (inactive).

And the Kd [3]?
The Kd was > 30 µM (inactive).

What about the Kd [4] of the same molecule?
Its Kd is > 30 µM (inactive).

And the Kd [5]?
Its Kd is > 30 µM (inactive).

With `Cc1cc(Nc2nc(N[C@@H](C)c3ncc(F)cn3)ncc2Cl)n[nH]1` [AZD-1480] as the molecule, how does the Kd [1] read?
The Kd was > 30 µM (inactive).

What about the Kd (Adenosine kinase) of the same molecule?
The Kd was > 30 µM (inactive).

What about the Kd [2] of the same molecule?
Its Kd is > 30 µM (inactive).

What about the Kd (Aurora kinase B) of the same molecule?
Its Kd is 1.56 µM (active).

And the Kd (Myosin-14)?
Its Kd is > 30 µM (inactive).

And the Kd [3]?
Its Kd is > 30 µM (inactive).

And the Kd [4]?
Its Kd is > 30 µM (inactive).

What about the Kd [5] of the same molecule?
The Kd was > 30 µM (inactive).

With `CCc1cc2c(cc1N1CCC(N3CCOCC3)CC1)C(C)(C)c1[nH]c3cc(C#N)ccc3c1C2=O` [ALECTINIB] as the molecule, how does the Kd [1] read?
The Kd was > 30 µM (inactive).

And the Kd (Adenosine kinase)?
The Kd was > 30 µM (inactive).

And the Kd [2]?
Its Kd is > 30 µM (inactive).

And the Kd (Aurora kinase B)?
Its Kd is > 30 µM (inactive).

And the Kd (Myosin-14)?
The Kd was > 30 µM (inactive).

And the Kd [3]?
Its Kd is > 30 µM (inactive).

And the Kd [4]?
The Kd was > 30 µM (inactive).

And the Kd [5]?
Its Kd is > 30 µM (inactive).

With `O=S(=O)(c1cccc2c(O)nccc12)N1CCCNCC1` [HYDROXYFASUDIL] as the molecule, how does the Kd [1] read?
Its Kd is > 30 µM (inactive).

And the Kd (Adenosine kinase)?
The Kd was > 30 µM (inactive).

What about the Kd [2] of the same molecule?
Its Kd is > 30 µM (inactive).

What about the Kd (Aurora kinase B) of the same molecule?
Its Kd is > 30 µM (inactive).

And the Kd (Myosin-14)?
The Kd was > 30 µM (inactive).

What about the Kd [3] of the same molecule?
The Kd was > 30 µM (inactive).

And the Kd [4]?
The Kd was > 30 µM (inactive).

What about the Kd [5] of the same molecule?
The Kd was > 30 µM (inactive).

Reference: ChEMBL document CHEMBL3991601, “The target landscape of clinical kinase drugs” (Science, 2017)
